Patent EP4671247A1, “SUBSTITUTED PYRAZOLOPYRIMIDINE COMPOUND AND PHARMACEUTICAL USE THEREOF” (Japan Tobacco Inc., priority 2023, dated 2024)
Where two headings read alike, the source gives them in different places.

Target: T1, NLRP3 inflammasome (Homo sapiens, UniProt Q96P20)
T1 construct: host or cells: THP1-Null cells (PMA-differentiated, LPS-primed, nigericin-stimulated)
Assay: Evaluation of NLRP3 inflammasome inhibitory activity (inhibition of IL-1β production in LPS/Nigericin-stimulated THP1-Null cells, AlphaLISA)
Format: cell-based
Conditions: IL-1β production in THP1-Null cells; for IC50: PMA, 1 µg/mL Lipopolysaccharides 3 hours, Nigericin 7.5 µmol/L 1.5 hours
Description: The NLRP3 inflammasome inhibitory activity of test compounds were evaluated on the basis of the inhibitory activity of the IL-1β production in THP1-Null cells (Product Number: thp-null, InvivoGen).
The supernatant of the culture was removed, and thereto was added media for assay (25 µL/well) containing 1 µg/mL Lipopolysaccharides (Product Number: L2654, Sigma-Aldrich (registered trademark)). […] The supernatant of the culture was removed. […] A solution containing a test compound (20 µL/well) was added to test compound-setting wells. […] The supernatant of the culture was cryonically stored (set at -20°C) until measurement of IL-1β.
The amount of IL-1β in the culture supernatant was quantitated with AlphaLISA (registered trademark) Human IL-1β Detection Kit (Product Number: AL220C, Perkin Elmer). Fluorescence intensity was measured with a microplate reader EnSpier (Model number: 2300-00J, Perkin Elmer) or EnSight (Model number: HH34000000, Perkin Elmer) according to procedure manuals attached thereto. Inhibition rates of the test compound-setting wells were calculated on the basis of 100% for the blank-setting wells and 0% for the control-setting wells.

T1 sequence (Q96P20 whole entry): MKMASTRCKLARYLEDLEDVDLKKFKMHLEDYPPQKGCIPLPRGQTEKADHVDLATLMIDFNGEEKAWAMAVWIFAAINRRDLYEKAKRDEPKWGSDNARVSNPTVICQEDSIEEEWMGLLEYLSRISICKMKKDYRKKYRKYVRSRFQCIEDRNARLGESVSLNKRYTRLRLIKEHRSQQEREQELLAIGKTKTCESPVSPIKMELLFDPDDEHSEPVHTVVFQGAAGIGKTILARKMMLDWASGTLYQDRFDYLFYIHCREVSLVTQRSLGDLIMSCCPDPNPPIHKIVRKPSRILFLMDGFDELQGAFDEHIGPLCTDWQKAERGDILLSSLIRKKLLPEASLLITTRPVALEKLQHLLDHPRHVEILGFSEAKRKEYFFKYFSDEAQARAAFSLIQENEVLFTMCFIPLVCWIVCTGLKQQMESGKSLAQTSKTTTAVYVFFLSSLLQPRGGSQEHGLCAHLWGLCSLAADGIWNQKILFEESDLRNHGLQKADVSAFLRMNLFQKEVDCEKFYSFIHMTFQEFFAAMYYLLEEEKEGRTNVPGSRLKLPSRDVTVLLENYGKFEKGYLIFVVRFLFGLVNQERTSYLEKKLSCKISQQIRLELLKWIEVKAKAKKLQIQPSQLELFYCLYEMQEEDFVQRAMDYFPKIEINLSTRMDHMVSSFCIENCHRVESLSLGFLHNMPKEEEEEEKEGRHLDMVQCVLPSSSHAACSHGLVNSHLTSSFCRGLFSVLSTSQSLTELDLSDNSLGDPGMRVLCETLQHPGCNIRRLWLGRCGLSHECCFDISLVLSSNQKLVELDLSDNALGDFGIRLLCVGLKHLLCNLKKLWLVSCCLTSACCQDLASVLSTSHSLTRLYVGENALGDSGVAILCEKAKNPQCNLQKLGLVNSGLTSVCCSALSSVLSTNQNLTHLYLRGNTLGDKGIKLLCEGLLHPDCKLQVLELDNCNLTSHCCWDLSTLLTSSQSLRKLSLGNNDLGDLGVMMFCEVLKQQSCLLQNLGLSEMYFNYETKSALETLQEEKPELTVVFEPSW

CC(=O)c1nc2nn(-c3c(C)cc(C(C)(F)F)cc3C)cc2c(=O)[nH]1 [Example 206]
IC50 (read-out: IC50): 360 nM

Cc1cc(C2CC2)cc(C)c1-n1cc2c(=O)[nH]c(C(O)C(F)F)nc2n1 (single isomer, unassigned) [Example 170]
IC50: 510 nM

Cc1cc(C2CC2)cc(C)c1-n1cc2c(=O)[nH]c(C3CCOC3)nc2n1 (racemic) [Example 29]
IC50: 9 nM

CNC(=O)Cn1c(C)nc2nn(-c3ccc(C)cc3C)cc2c1=O [Example 17]
inhibition at 2.4 µM (test compound at 2.4 µM): -15%

Cc1cc(C2CC2)cc(C)c1-n1cc2c(=O)[nH]c(COC(F)F)nc2n1 [Example 145]
IC50 (read-out: IC50): 13 nM

COc1cc(C)c(-n2cc3c(=O)[nH]c(C4CC4)nc3n2)c(C)c1 [Example 53]
IC50 (read-out: IC50): 140 nM

Cc1cc(Br)cc(C)c1-n1cc2c(=O)[nH]c([C@@H]3C[C@@H]3F)nc2n1 [Example 91]
IC50: 8 nM

Cc1cc(Br)cc(C)c1-n1nc2nc(C3CCOCC3)[nH]c(=O)c2c1C(F)F [Example 82]
IC50 (read-out: IC50): 16 nM

Cc1cc(C2CC2)cc(C)c1-n1cc2c(=O)[nH]c(C3CC(F)(F)C3)nc2n1 [Example 45]
IC50 (read-out: IC50): 7 nM

Cc1cc(C2CC2)cc(C)c1-n1cc2c(=O)[nH]c(C34COC(C)(C3)C4)nc2n1 [Example 52]
IC50 (read-out: IC50): 40 nM

Cc1cc(OC(F)F)cc(C)c1-n1cc2c(=O)[nH]c(C3=COCC3)nc2n1 [Example 175]
inhibition at 0.002 µM (test compound at 0.002 µM): 54%

CCc1nc2nn(-c3ccc(C)cc3C)cc2c(=O)[nH]1 [Example 8]
IC50 (read-out: IC50): 230 nM

Cc1cc(OC(F)F)cc(C)c1-n1cc2c(=O)[nH]c(C3CCOCC3)nc2n1 [Example 64]
IC50 (read-out: IC50): 22 nM

Cc1nc2nn(-c3c(C)cc(C4CC4)cc3C)cc2c(=O)[nH]1 [Example 19]
IC50 (read-out: IC50): 170 nM

Cc1cc(C2CC2)cc(C)c1-n1cc2c(=O)[nH]c(C3CC3(F)F)nc2n1 (racemic) [Example 114]
IC50 (read-out: IC50): 17 nM

Cc1ccc(-n2cc3c(=O)[nH]c(CCCS(C)(=O)=O)nc3n2)c(C)c1 [Example 37]
IC50 (read-out: IC50): 1100 nM

Cc1ccc(-n2cc3c(=O)[nH]c(CC(C)C)nc3n2)c(C)c1 [Example 6]
IC50 (read-out: IC50): 430 nM

CCOCCc1nc2nn(-c3c(C)cc(Br)cc3C)cc2c(=O)[nH]1 [Example 98]
IC50 (read-out: IC50): 98 nM

COCCc1nc2nn(-c3c(C)cc(C4CC4)cc3C)cc2c(=O)[nH]1 [Example 99]
IC50 (read-out: IC50): 43 nM

Cc1cc(C2CC2)cc(C)c1-n1cc2c(=O)[nH]c(COC3CCCOC3)nc2n1 (racemic) [Example 57]
IC50 (read-out: IC50): 340 nM

Cc1cc(C(C)(F)F)cc(C)c1-n1cc2c(=O)[nH]c([C@@H](C)O)nc2n1 (single isomer, unassigned) [Example 154]
IC50 (read-out: IC50): 25 nM

CCOc1nc(C)nc2nn(-c3ccc(C)cc3C)cc12 [Example 11]
inhibition at 24 µM (test compound at 24 µM): 43%

Cc1cc(Br)cc(C)c1-n1cc2c(=O)[nH]c(COCC3CCOCC3)nc2n1 [Example 46]
IC50 (read-out: IC50): 140 nM

Cc1cc(C2CC2)cc(C)c1-n1cc2c(=O)[nH]c(C3CCO3)nc2n1 (racemic) [Example 36]
IC50 (read-out: IC50): 150 nM

Cc1cc(C2CC2)cc(C)c1-n1cc2c(=O)[nH]c(CO)nc2n1 [Example 105]
IC50 (read-out: IC50): 13 nM

COCC1C(c2nc3nn(-c4c(C)cc(C5CC5)cc4C)cc3c(=O)[nH]2)C1(F)F (racemic) [Example 120]
IC50 (read-out: IC50): 40 nM

COc1cc(C)c(-n2cc3c(=O)[nH]c(C45CC(CO)(CO4)C5)nc3n2)c(C)c1 [Example 94]
IC50 (read-out: IC50): 220 nM

Cc1cc(C2CC2)cc(C)c1-n1cc2c(=O)[nH]c(C3CC3F)nc2n1 (racemic) [Example 93]
IC50 (read-out: IC50): 8 nM

Cc1cc(OC(F)F)cc(C)c1-n1cc2c(=O)[nH]c(CC3CC3)nc2n1 [Example 164]
IC50 (read-out: IC50): 67 nM

Cc1cc(Br)cc(C)c1-n1cc2c(=O)[nH]c(COC3CCCOC3)nc2n1 (racemic) [Example 56]
IC50 (read-out: IC50): 350 nM

COCC(O)Cc1nc2nn(-c3c(C)cc(C4CC4)cc3C)cc2c(=O)[nH]1 (racemic) [Example 143]
IC50 (read-out: IC50): 86 nM

Cc1cc(OC(F)F)cc(C)c1-n1cc2c(=O)[nH]c(C(O)C(F)F)nc2n1 (racemic) [Example 167]
IC50 (read-out: IC50): 230 nM
